Laboratory results taken from ChEMBL document CHEMBL5728033 (2020).

Target: Beta-lactamase (Escherichia coli K-12, UniProt P00811)
Assay: Inhibition of Beta-Lactamase Enzymes: A buffer consisting of 0.1 M sodium phosphate (pH 7.0), 10 mM NaHCO3, and 0.005% Triton X-100 was used for all enzymes. The chromogenic substrate nitrocefin (SynGene, Bangalore, India) was used at 100 μM. Enzyme activity was monitored by the 490 nm absorbance increase upon nitrocefin hydrolysis. Assays were performed in clear polystyrene 384-well plates (Greiner Bio-One, Monroe, N.C.). Absorbance was measured for 1 hour at 30-s intervals using a Spectramax absorbance plate reader (Molecular Devices, Sunnyvale, Calif.). Measurement of beta-lactamase inhibition by INHIBITOR employed serial 3-fold dilutions of the inhibitor in assay buffer, ranging from 100 μM to 62.7 pM. A background absorbance progress curve for a control lacking enzyme and inhibitor was subtracted from each progress curve.
Type: single protein

Sequence of Beta-lactamase (P00811 whole entry): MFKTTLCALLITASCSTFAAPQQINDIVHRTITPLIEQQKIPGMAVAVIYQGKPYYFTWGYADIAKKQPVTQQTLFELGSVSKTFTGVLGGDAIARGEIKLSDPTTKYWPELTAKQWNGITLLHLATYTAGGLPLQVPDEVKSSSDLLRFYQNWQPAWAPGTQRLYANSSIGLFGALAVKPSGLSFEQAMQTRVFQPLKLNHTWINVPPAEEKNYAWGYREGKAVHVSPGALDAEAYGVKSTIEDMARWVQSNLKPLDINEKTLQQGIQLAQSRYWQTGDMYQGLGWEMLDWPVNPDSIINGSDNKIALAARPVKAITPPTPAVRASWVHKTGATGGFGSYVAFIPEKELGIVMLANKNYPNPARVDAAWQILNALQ

**Q.** With `CC1=C[C@@H](C(N)=O)N2C[C@@H]1N(O[C@@H](F)C(=O)O)C2=O` as the molecule, how does the IC50 read?
**A.** 300 nM

**Q.** With `CC1=C[C@@H](C#N)N2C[C@@H]1N(O[C@H](F)C(=O)O)C2=O` as the molecule, how does the IC50 read?
**A.** 590 nM

**Q.** Which IC50 does the source give for `CC1=C[C@@H]2CN(C(=O)N2O[C@@H](F)C(=O)O)[C@@H]1C(=O)NCC[C@@H]1CCC(=O)N1` here?
**A.** 10 nM

**Q.** `CC1=C[C@@H]2CN(C(=O)N2O[C@H](F)C(=O)O)[C@@H]1C(N)=O` was tested. Which IC50 did it give?
**A.** 11 nM

**Q.** For `CC1=C[C@@H]2CN(C(=O)N2O[C@@H](F)C(=O)O)[C@@H]1C(=O)NCO`, which IC50 is on record?
**A.** 17 nM

**Q.** For `CC1=C[C@@H]2CN(C(=O)N2O[C@@H](F)C(=O)O)[C@@H]1C(=O)NC1COC1`, which IC50 is on record?
**A.** 54 nM

**Q.** `CC1=C[C@@H](C(N)=O)N2C[C@@H]1N(OC(F)(F)C(=O)O)C2=O` was tested. Which IC50 did it give?
**A.** 36 nM

**Q.** How did the IC50 turn out when `CC1=C[C@@H]2CN(C(=O)N2O[C@@H](F)C(=O)O)[C@@H]1C(=O)NCCCS(N)(=O)=O` was run?
**A.** 22 nM

**Q.** How did the IC50 turn out when `CC1=C[C@@H]2CN(C(=O)N2O[C@@H](F)C(=O)O)[C@@H]1C(=O)NCCNS(C)(=O)=O` was run?
**A.** 7.3 nM

**Q.** For `CC1=C[C@@H]2CN(C(=O)N2OC(C)(F)C(=O)O)[C@@H]1C(N)=O` (mixture of isomers), which IC50 is on record?
**A.** 400 nM

**Q.** How did the IC50 turn out when `CC1=C[C@@H]2CN(C(=O)N2OC(F)(F)C(=O)O)[C@@H]1C(N)=O` was run?
**A.** 12 nM

**Q.** For `CC1=C[C@@H](C(N)=O)N2C[C@@H]1N(O[C@H](F)C(=O)O)C2=O`, which IC50 is on record?
**A.** 160 nM

**Q.** With `CC1=C[C@@H]2CN(C(=O)N2O[C@@H](F)C(=O)O)[C@@H]1C(=O)NOCC1CC1` as the molecule, how does the IC50 read?
**A.** 130 nM

**Q.** For `CC1=C[C@@H]2CN(C(=O)N2O[C@@H](F)C(=O)O)[C@@H]1C(=O)NCCS(N)(=O)=O`, which IC50 is on record?
**A.** 4.1 nM

**Q.** How did the IC50 turn out when `CC(=O)NNC(=O)[C@@H]1C(C)=C[C@@H]2CN1C(=O)N2OC(F)C(=O)O` (some centres not stated) was run?
**A.** 8.3 nM

**Q.** Which IC50 does the source give for `CC1=C[C@@H]2CN(C(=O)N2OC(F)C(=O)O)[C@@H]1C(=O)NCc1cnccn1` (some centres not stated) here?
**A.** 1.8 nM

**Q.** For `O=C(O)C(F)ON1C(=O)N2C[C@H]1CC[C@H]2C(=O)NC1CCNCC1` (some centres not stated), which IC50 is on record?
**A.** 1600 nM

**Q.** How did the IC50 turn out when `CC1=C[C@@H]2CN(C(=O)N2OC(F)C(=O)O)[C@@H]1C(N)=O` (mixture of isomers) was run?
**A.** 20 nM

**Q.** How did the IC50 turn out when `CC1=C[C@@H]2CN(C(=O)N2O[C@@H](F)C(=O)O)[C@@H]1C(=O)NCCNS(N)(=O)=O` was run?
**A.** 14 nM

**Q.** For `CC1=C[C@@H]2CN(C(=O)N2O[C@@H](F)C(=O)O)[C@@H]1C(=O)NOC[C@@H]1CC(F)(F)CN1`, which IC50 is on record?
**A.** 40 nM

**Q.** With `CC1=C[C@@H]2CN(C(=O)N2O[C@@H](F)C(=O)O)[C@@H]1C(=O)NOC[C@@H]1CCCN1` as the molecule, how does the IC50 read?
**A.** 410 nM

**Q.** For `NC(=O)[C@@H]1C(C2CC2)=C[C@@H]2CN1C(=O)N2O[C@H](F)C(=O)O`, which IC50 is on record?
**A.** 22 nM

**Q.** How did the IC50 turn out when `CC1=C[C@@H]2CN(C(=O)N2OC(F)C(=O)O)[C@@H]1c1nnc(C(N)=O)o1` (some centres not stated) was run?
**A.** 180 nM

**Q.** For `NC(=O)[C@@H]1CC[C@@H]2CN1C(=O)N2O[C@H](F)C(=O)O`, which IC50 is on record?
**A.** 2000 nM

**Q.** `CC1=C[C@@H]2CN(C(=O)N2O[C@@H](F)C(=O)O)[C@@H]1C(=O)NOC[C@@H]1CCC(=O)N1` was tested. Which IC50 did it give?
**A.** 53 nM

**Q.** With `CC1=C[C@@H](C(N)=O)N2C[C@@H]1N(OCC(=O)O)C2=O` as the molecule, how does the IC50 read?
**A.** 4600 nM

**Q.** With `CC1=C[C@@H]2CN(C(=O)N2O[C@@H](F)C(=O)O)[C@@H]1CNC(=O)OC(C)(C)C` as the molecule, how does the IC50 read?
**A.** 44000 nM

**Q.** For `CC1=C[C@@H]2CN(C(=O)N2OCC(=O)O)[C@@H]1C(N)=O`, which IC50 is on record?
**A.** 1200 nM

**Q.** How did the IC50 turn out when `CC1=C[C@@H]2CN(C(=O)N2O[C@@H](F)C(=O)O)[C@@H]1C(=O)NCCC(N)=O` was run?
**A.** 4.4 nM

**Q.** For `CC1=C[C@@H]2CN(C(=O)N2O[C@@H](F)C(=O)O)[C@@H]1C(=O)NCc1ncco1`, which IC50 is on record?
**A.** 9.3 nM

**Q.** `CC(=O)NCNC(=O)[C@@H]1C(C)=C[C@@H]2CN1C(=O)N2O[C@@H](F)C(=O)O` was tested. Which IC50 did it give?
**A.** 3.1 nM

**Q.** How did the IC50 turn out when `CC1=C[C@@H]2CN(C(=O)N2O[C@@H](F)C(=O)O)[C@@H]1C(=O)NCc1cnccn1` was run?
**A.** 2 nM

**Q.** `CC1=C[C@@H]2CN(C(=O)N2O[C@@H](F)C(=O)O)[C@@H]1C(N)=O` was tested. Which IC50 did it give?
**A.** 71 nM

**Q.** With `CC1=C[C@@H]2CN(C(=O)N2O[C@@H](F)C(=O)O)[C@@H]1C(=O)NCNS(N)(=O)=O` as the molecule, how does the IC50 read?
**A.** 2.1 nM

**Q.** For `CC1=C[C@@H]2CN(C(=O)N2O[C@@H](F)C(=O)O)[C@@H]1C(=O)NCC#N`, which IC50 is on record?
**A.** 14 nM

**Q.** For `CC1=C[C@@H]2CN(C(=O)N2O[C@@H](F)C(=O)O)[C@@H]1C(=O)NOCCS(N)(=O)=O`, which IC50 is on record?
**A.** 140 nM

**Q.** `NC(=O)[C@@H]1C(C2CC2)=C[C@@H]2CN1C(=O)N2O[C@@H](F)C(=O)O` was tested. Which IC50 did it give?
**A.** 95 nM
